Results reported in patent US20070128217A1 (priority 2003, published 2007).

Legend:
[1] = system: antibodies in sera from SARS patients (sera 1a, 1b, 2, 6, 37, 62, London, SARS-yellow, SARS-green); assay type: binding, human; set-up: Binding of serum 6 to linear peptides of protein X1 of SARS-CoV Urbani / Binding of serum 37 to linear peptides of protein X1 of SARS-CoV Urbani / Binding of serum 6 to looped/cyclic peptide (PEPSCAN-ELISA) / Binding of serum 37 to looped/cyclic peptide (PEPSCAN-ELISA) / Binding of serum 37 to looped/cyclic peptides of protein X1 of SARS-CoV Urbani / Binding of serum 6 to linear peptides of protein X2 / Binding of serum 37 to linear peptides of protein X2 / Binding of serum 37 to looped/cyclic peptides of protein X2 of SARS-CoV Urbani / Binding of serum 6 to linear peptides of protein M of SARS-CoV Urbani / Binding of serum 37 to linear peptides of protein M of SARS-CoV Urbani / Binding of serum 6 to looped/cyclic peptides of protein M of SARS-CoV Urbani / Binding of serum 37 to looped/cyclic peptides of protein M of SARS-CoV Urbani / Binding of serum 6 to linear peptides of protein X3 of SARS-CoV Urbani / Binding of serum 37 to linear peptides of protein X3 of SARS-CoV Urbani / Binding of serum 37 to looped/cyclic peptides of protein X3 of SARS-CoV Urbani / Binding of serum 6 to linear peptides of protein X4 of SARS-CoV Urbani / Binding of serum 37 to linear peptides of protein X4 of SARS-CoV Urbani / Binding of serum 37 to looped/cyclic peptides of protein X4 of SARS-CoV Urbani / Binding of serum 6 to linear peptides of protein X5 of SARS-CoV Urbani / Binding of serum 37 to linear peptides of protein X5 of SARS-CoV Urbani / Binding of serum 37 to looped/cyclic peptides of protein X5 of SARS-CoV Urbani / Binding of serum 6 to linear peptides of protein N of SARS-CoV Urbani / Binding of serum 37 to linear peptides of protein N of SARS-CoV Urbani / Binding of serum 6 to linear peptide (PEPSCAN-ELISA) / Binding of serum 1a to looped/cyclic peptides of protein N of SARS-CoV Urbani / Binding of serum 1b to looped/cyclic peptides of protein N of SARS-CoV Urbani / Binding of serum 2 to looped/cyclic peptides of protein N of SARS-CoV Urbani / Binding of serum 6 to looped/cyclic peptides of protein N of SARS-CoV Urbani / Binding of serum 37 to looped/cyclic peptides of protein N of SARS-CoV Urbani / Binding of serum 62 to looped/cyclic peptides of protein N of SARS-CoV Urbani / Binding of serum London to looped/cyclic peptides of protein N of SARS-CoV Urbani / Binding of serum SARS-green to looped/cyclic peptides of protein N of SARS-CoV Urbani: unit not given here
[2] = system: rabbit serum obtained by immunizing a rabbit with the SARS-CoV strain Frankfurt 1; assay type: binding; set-up: Binding of a rabbit serum to linear peptides / Binding of a rabbit serum to looped peptides / Rabbit serum linear peptides / Rabbit serum looped peptides / Binding of a rabbit serum to linear peptides of protein N of SARS-CoV Urbani (Rabbit serum linear peptides) / Binding of a rabbit serum to looped/cyclic peptides of protein N of SARS-CoV Urbani (Rabbit serum looped peptides): unit not given here
[3] = system: control sera (pooled serum of ten healthy LUMC hospital workers; commercial negative donor pooled serum from the Dutch bloodbank); assay type: binding, human; set-up: Binding of Control serum LUMC to linear peptides / Binding of Control serum Blood-bank to linear peptides / Binding of Control serum LUMC to looped peptides / Binding of Control Serum Blood-Bank to Looped peptides / Binding of Control serum LUMC to linear peptides of the protein M of SARS-CoV Urbani / Binding of Control serum Blood-bank to linear peptides of the protein M of SARS-CoV Urbani / Binding of Control serum LUMC to looped peptides of the protein M of SARS-CoV Urbani / Binding of Control Serum Blood-Bank to Looped peptides of the protein M of SARS-CoV Urbani: unit not given here

Sequence | Binding of serum 1a to linear peptides of protein X1 of SARS-CoV Urbani [1] | Binding of serum 1a to looped/cyclic peptide (PEPSCAN-ELISA) [1] | Binding of serum 1b to linear peptides of protein X1 of SARS-CoV Urbani [1] | Binding of serum 1b to looped/cyclic peptide (PEPSCAN-ELISA) [1] | Binding of serum 2 to linear peptides of protein X1 of SARS-CoV Urbani [1] | Binding of serum 2 to looped/cyclic peptide (PEPSCAN-ELISA) [1] | Binding of serum 6 to linear peptides of protein X1 of SARS-CoV Urbani [1] | Binding of serum 6 to looped/cyclic peptide (PEPSCAN-ELISA) [1] | Binding of serum 37 to linear peptides of protein X1 of SARS-CoV Urbani [1] | Binding of serum 37 to looped/cyclic peptide (PEPSCAN-ELISA) [1] | Binding of serum 62 to linear peptides of protein X1 of SARS-CoV Urbani [1] | Binding of serum London to linear peptides of protein X1 of SARS-CoV Urbani [1] | Binding of serum SARS-green to linear peptides of protein X1 of SARS-CoV Urbani [1] | Binding of serum SARS-yellow to linear peptides of protein X1 of SARS-CoV Urbani [1] | Binding of a rabbit serum to linear peptides [2] | Binding of a rabbit serum to looped peptides [2] | Binding of Control Serum Blood-Bank to Looped peptides [3] | Binding of Control serum Blood-bank to linear peptides [3] | Binding of Control serum LUMC to linear peptides [3] | Binding of Control serum LUMC to looped peptides [3] | further results
QFICNLLLLFVTIYS | 0.6 | 0.5 | 0.5 | 0.4 | 0.6 | 0.6 | 0.4 | 0.3 | 0.5 | 0.5 | 0.6 | 0.2 | 0.0 | 0.4 | 0.3 | 0.5 | 0.5 | 0.6 | 0.6 | 0.5 | Binding of serum 62 to looped/cyclic peptide (PEPSCAN-ELISA) [1]: 0.5; Binding of serum London to looped/cyclic peptide (PEPSCAN-ELISA) [1]: 0.2; Binding of serum SARS-green to looped/cyclic peptide (PEPSCAN-ELISA) [1]: 0.2; Binding of serum SARS-yellow to looped/cyclic peptide (PEPSCAN-ELISA) [1]: 0.5
QFLYLYALIYFLQCI | 0.7 | 0.5 | 0.5 | 0.3 | 0.5 | 0.3 | 0.4 | 0.2 | 0.6 | 0.5 | 0.5 | 0.2 | 0.2 | 0.5 | 0.1 | 0.4 | 0.5 | 0.5 | 0.4 | 0.6 | Binding of serum 62 to looped/cyclic peptide (PEPSCAN-ELISA) [1]: 0.5; Binding of serum London to looped/cyclic peptide (PEPSCAN-ELISA) [1]: 0.2; Binding of serum SARS-green to looped/cyclic peptide (PEPSCAN-ELISA) [1]: 0.2; Binding of serum SARS-yellow to looped/cyclic peptide (PEPSCAN-ELISA) [1]: 0.3
QIHTIDGSSGVANPA | 0.6 |  | 0.5 |  | 0.6 |  | 0.5 |  | 0.7 |  | 0.6 | 0.3 | 0.4 | 0.3 | 0.1 | 0.3 | 0.2 | 0.6 | 0.6 | 0.4 | Binding of serum 1a to looped/cyclic peptides of protein X1 of SARS-CoV Urbani [1]: 0.4; Binding of serum 1b to looped/cyclic peptides of protein X1 of SARS-CoV Urbani [1]: 0.3; Binding of serum 2 to looped/cyclic peptides of protein X1 of SARS-CoV Urbani [1]: 0.4; Binding of serum 6 to looped/cyclic peptides of protein X1 of SARS-CoV Urbani [1]: 0.2; Binding of serum 37 to looped/cyclic peptides of protein X1 of SARS-CoV Urbani [1]: 0.4; Binding of serum 62 to looped/cyclic peptides of protein X1 of SARS-CoV Urbani [1]: 0.3; Binding of serum London to looped/cyclic peptides of protein X1 of SARS-CoV Urbani [1]: 0.2; Binding of serum SARS-green to looped/cyclic peptides of protein X1 of SARS-CoV Urbani [1]: 0.2; Binding of serum SARS-yellow to looped/cyclic peptides of protein X1 of SARS-CoV Urbani [1]: 0.1
